Data: ChEMBL document CHEMBL4043152, “Design, synthesis, and cytotoxic activity of novel 7-substituted camptothecin derivatives incorporating piperazinyl-sulfonylamidine moieties” (Bioorg Med Chem Lett, 2017)

Experiments:
Format in all cases: functional, cell-based
[1] = Cytotoxicity against human KBVIN cells after 72 hrs by SRB assay
KB = assay: Cytotoxicity against human KB cells after 72 hrs by SRB assay
MCF7 = assay: Cytotoxicity against human MCF7 cells after 72 hrs by SRB assay; settings: MCF7, 72 h
MDA-MB-231 = assay: Cytotoxicity against human MDA-MB-231 cells after 72 hrs by SRB assay; settings: MDA-MB-231, 72 h
A549 = assay: Cytotoxicity against human A549 cells after 72 hrs by SRB assay; settings: A549, 72 h

Structure (SMILES)	IC50 [1]	IC50 (KB)	IC50 (MCF7)	IC50 (MDA-MB-231)	IC50 (A549)
CC[C@@]1(O)C(=O)OCc2c1cc1n(c2=O)Cc2c-1nc1ccccc1c2CN1CCN(/C(Cc2ccccc2)=N\S(=O)(=O)c2cccs2)CC1	1270 nM	590 nM	1250 nM	3990 nM	650 nM
CC[C@@]1(O)C(=O)OCc2c1cc1n(c2=O)Cc2c-1nc1ccccc1c2CN1CCN(/C(Cc2ccc(OC)cc2)=N\S(=O)(=O)c2ccc3ccccc3c2)CC1	3660 nM	840 nM	6560 nM	9360 nM	740 nM
CC[C@@]1(O)C(=O)OCc2c1cc1n(c2=O)Cc2c-1nc1ccccc1c2CN1CCN(/C(Cc2ccccc2)=N\S(=O)(=O)c2cccnc2)CC1	2090 nM	720 nM	3400 nM	3840 nM	760 nM
CC[C@@]1(O)C(=O)OCc2c1cc1n(c2=O)Cc2c-1nc1ccccc1c2CN1CCN(/C(Cc2ccccc2)=N\S(=O)(=O)c2ccc3ccccc3c2)CC1	890 nM	2110 nM	9370 nM	11300 nM	3150 nM
CC[C@@]1(O)C(=O)OCc2c1cc1n(c2=O)Cc2c-1nc1ccccc1c2CN1CCN(/C(Cc2ccc(OC)cc2)=N\S(=O)(=O)c2ccc([N+](=O)[O-])cc2)CC1	970 nM	1060 nM	8360 nM	9750 nM	2930 nM
CC[C@@]1(O)C(=O)OCc2c1cc1n(c2=O)Cc2c-1nc1ccccc1c2CN1CCN(/C(Cc2ccc(F)cc2)=N\S(=O)(=O)c2cccnc2)CC1	5820 nM	6760 nM	6050 nM	6310 nM	2590 nM
CC[C@@]1(O)C(=O)OCc2c1cc1n(c2=O)Cc2c-1nc1ccccc1c2CN1CCN(/C(Cc2ccc(F)cc2)=N\S(=O)(=O)CC)CC1	970 nM	330 nM	1600 nM	2510 nM	500 nM
CC[C@@]1(O)C(=O)OCc2c1cc1n(c2=O)Cc2c-1nc1ccccc1c2CN1CCN(/C(Cc2ccccc2)=N\S(C)(=O)=O)CC1	3820 nM	130 nM	1590 nM	1570 nM	650 nM
CC[C@@]1(O)C(=O)OCc2c1cc1n(c2=O)Cc2c-1nc1ccccc1c2CN1CCN(/C(Cc2ccccc2)=N\S(=O)(=O)c2ccc(Cl)cc2)CC1	1550 nM	740 nM	3190 nM	5010 nM	640 nM
CC[C@@]1(O)C(=O)OCc2c1cc1n(c2=O)Cc2c-1nc1ccccc1c2CN1CCN(/C(Cc2ccc(F)cc2)=N\S(=O)(=O)c2ccc([N+](=O)[O-])cc2)CC1	850 nM	4430 nM	2180 nM	3540 nM	630 nM
CC[C@@]1(O)C(=O)OCc2c1cc1n(c2=O)Cc2c-1nc1ccccc1c2CN1CCN(/C(Cc2ccc(OC)cc2)=N\S(=O)(=O)c2cccnc2)CC1	2380 nM	880 nM	4220 nM	4960 nM	800 nM
CC[C@@]1(O)C(=O)OCc2c1cc1n(c2=O)Cc2c-1nc1ccccc1c2CN1CCN(/C(Cc2ccc(F)cc2)=N\S(=O)(=O)c2ccc3ccccc3c2)CC1	380 nM	4720 nM	4740 nM	5410 nM	600 nM
CC[C@@]1(O)C(=O)OCc2c1cc1n(c2=O)Cc2c-1nc1ccccc1c2CN1CCN(/C(Cc2ccccc2)=N\S(=O)(=O)CC)CC1	4290 nM	490 nM	1900 nM	3500 nM	730 nM
CC[C@@]1(O)C(=O)OCc2c1cc1n(c2=O)Cc2c-1nc1ccccc1c2CN1CCN(/C(Cc2ccccc2)=N\S(=O)(=O)c2ccccc2)CC1	1770 nM	630 nM	2250 nM	4410 nM	650 nM
CC[C@@]1(O)C(=O)OCc2c1cc1n(c2=O)Cc2c-1nc1ccccc1c2CN1CCN(/C(Cc2ccc(OC)cc2)=N\S(=O)(=O)CC)CC1	2730 nM	470 nM	2900 nM	3810 nM	710 nM
CC[C@@]1(O)C(=O)OCc2c1cc1n(c2=O)Cc2c-1nc1ccccc1c2CN1CCN(/C(Cc2ccc(F)cc2)=N\S(=O)(=O)c2ccc(C)cc2)CC1	2770 nM	1070 nM	7040 nM	6010 nM	1770 nM
CC[C@@]1(O)C(=O)OCc2c1cc1n(c2=O)Cc2c-1nc1ccccc1c2CN1CCN(/C(Cc2ccc(OC)cc2)=N\S(=O)(=O)c2ccc(C)cc2)CC1	3080 nM	830 nM	5670 nM	5840 nM	740 nM
CC[C@@]1(O)C(=O)OCc2c1cc1n(c2=O)Cc2c-1nc1ccccc1c2CN1CCN(/C(Cc2ccc(F)cc2)=N\S(=O)(=O)c2ccc(F)cc2)CC1	1810 nM	10100 nM	8850 nM	10200 nM	4310 nM
CCc1c2c(nc3ccc(OC(=O)N4CCC(N5CCCCC5)CC4)cc13)-c1cc3c(c(=O)n1C2)COC(=O)[C@]3(O)CC [IRINOTECAN]	> 20000 nM	–	11300 nM	–	8310 nM
CC[C@@]1(O)C(=O)OCc2c1cc1n(c2=O)Cc2cc3c(CN(C)C)c(O)ccc3nc2-1 [TOPOTECAN]	660 nM	–	280 nM	–	110 nM
